Measured values as given in patent US20230058623A1, “NOVEL HETEROARYL-TRIAZOLE COMPOUNDS AS PESTICIDES” (Bayer Aktiengesellschaft, priority 2019, published 2023).

Experiments:
Type in all cases: in vivo
[1] = test system: Rhipicephalus (Boophilus) microplus larvae (strain Parkhurst, resistant against synthetic pyrethroids); assay: Rhipicephalus (Boophilus) microplus in-vitro contact test, larval cattle tick; settings: after 48 hours, read-out: activity (efficacy: larvae dead or moribund); for pest or weed control at 1 µg/cm2, 100 g/ha: application rate 1 μg/cm^2 (=100 g/ha); for pest or weed control at 5 µg/cm2, 500 g/ha: application rate 5 μg/cm^2 (=500 g/ha)
Summary of the method: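 Acetone solutions were coated onto glass tube walls, giving 5 μg/cm^2 at 900 ppm. Once dry, 20–50 pyrethroid-resistant Parkhurst larvae were added per tube and held 48 h at 27 °C and 85% RH. Efficacy was scored by negative geotaxis as the percentage of dead or moribund larvae.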

[2] = test system: adult cat fleas (Ctenocephalides felis); assay: Ctenocephalides felis in-vitro contact test, adult cat flea; settings: application rate 5 μg/cm^2 (=500 g/ha), after 48 hours, read-out: activity (efficacy: fleas dead or moribund)
Summary of the method: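 Acetone solutions of compound were coated onto inner walls of glass tubes (900 ppm giving 5 μg/cm^2) and dried; 5-10 adult C. felis were then held 48 h at room temperature. Efficacy = % fleas dead or moribund, judged by inability to escape a 45-50° C heating plate within 5 min.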

[3] = test system: larvae of the banded cucumber beetle (Diabrotica balteata); assay: Diabrotica balteata spray test; settings: 168 h, application rate 100 g/ha (=32 μg/well), after 7 days, wheat seeds, read-out: activity (efficacy: seedlings grown)
Summary of the method: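 Wheat seeds germinated 1 day on agar were sprayed with compound diluted in water with 1000 ppm emulsifier, then infested with 10-20 Diabrotica balteata larvae. Efficacy in % scored after 7 days: 100% = seedlings grown as untreated, uninfected control; 0% = no seedlings grown.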

[4] = test system: green peach aphid (Myzus persicae); assay: Myzus persicae oral test; settings: 120 h, read-out: activity (mortality)
Summary of the method: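 Acetone stock (1 pbw compound/100 pbw solvent) diluted in water; mixed with sugar-supplemented IPL41 medium; parafilm-sealed; mixed aphid population sucks through film; mortality % read at 5 d.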

[5] = test system: fall armyworm larvae (Spodoptera frugiperda); assay: Spodoptera frugiperda spray test; settings: 168 h, application rate 100 g/ha, after 7 days, maize leaf sections
Summary of the method: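 Maize leaf sections were sprayed with compound formulated in solvent and diluted in water containing 1000 ppm emulsifier, then infested with fall armyworm larvae after drying. Percent mortality was scored after 7 days (100% = all caterpillars dead, 0% = none).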

[6] = test system: adult mosquitoes Aedes aegypti strain MONHEIM; assay: Aedes aegypti test (AEDSAE surface treatment & contact assay); settings: surface concentration 20 mg/m^2, exposure 30 minutes, 24 hours after contact, read-out: efficacy (mortality)
Experimental: Aedes aegypti Test (AEDSAE Surface Treatment & Contact Assay)
(§1) Solvent: Aceton+2000 ppm rapeseed oil methyl ester (RME)
(§2) In order to produce a sufficient, active ingredient containing solution it is necessary to solve the test compound in the solvent-mix (acetone at 2 mg/ml/RME 2000 ppm). This solution is pipetted onto a glazed tile and after evaporation of the acetone, adult mosquitoes of the species Aedes aegypti strain MONHEIM are placed onto the dried surface. The exposure time is 30 minutes.
(§3) Mortality in percent (%) is determined 24 hours after contact of the insects to the treated surface. 100% mortality means that all tested insects are dead, whereas 0% means that no insect died.

[7] = test system: adult flies Musca domestica strain WHO-N; assay: Musca domestica test (MUSCDO surface treatment & contact assay); settings: 24 hours after contact, read-out: efficacy (mortality); for mortality at 20 mg/m2: surface concentration 20 mg/m^2, exposure 30 minutes
Experimental: Musca domestica Test (MUSCDO Surface Treatment & Contact Assay)
as §1
as §2, with “flies” for “mosquitoes”, “Musca domestica” for “Aedes aegypti”, “WHO-N” for “MONHEIM”
as §3

[8] = test system: green peach aphid (Myzus persicae); assay: Myzus persicae spray test; settings: foliar, 120 h, after 5 days, Chinese cabbage leaf disks; for mortality at 100 g/ha: application rate 100 g/ha, read-out: activity (mortality); for mortality at 500 g/ha: application rate 500 g/ha
Experimental: Myzus persicae—Spray Test
(§4) To produce a suitable preparation of active compound, 1 part by weight of active compound is mixed with the stated amount of solvents and is diluted with water, containing an emulsifier concentration of 1000 ppm, to the desired concentration. Further test concentrations are prepared by dilution with emulsifier containing water.
Chinese cabbage (Brassica pekinensis) leaf disks infected with all instars of the green peach aphid (Myzus persicae), are sprayed with a preparation of the active ingredient of the desired concentration.
After 5 days mortality in % is determined. 100% means all aphids have been killed and 0% means none of the aphids have been killed.

[9] = test system: larvae of the southern green stink bug (Nezara viridula); assay: Nezara viridula spray test; settings: 96 h, after 4 days, barley plants; for mortality at 100 g/ha: application rate 100 g/ha; for mortality at 500 g/ha: application rate 500 g/ha, read-out: activity (mortality)
Experimental: Nezara viridula—Spray Test
as §4, with “solvent,” for “solvents”, “and the concentrate” for “and”
Barley plants (Hordeum vulgare) are sprayed with a test solution containing the desired concentration of the active ingredient and are infested with larvae of the southern green stink bug (Nezara viridula).
After 4 days mortality in % is determined. 100% means all the stink bugs have been killed; 0% means none of the stink bugs have been killed.

[10] = test system: adult brown dog ticks (Rhipicephalus sanguineus); assay: Rhipicephalus sanguineus in-vitro contact test, adult brown dog ticks; settings: application rate 5 μg/cm^2 (=500 g/ha), after 48 hours, read-out: activity (efficacy: ticks dead or moribund)
Experimental: Rhipicephalus sanguineus—In-Vitro Contact Tests with Adult Brown Dog Ticks
9 mg compound is solved in 1 mL acetone and diluted with acetone to the desired concentration. 250 μL of the test solution is filled in 25 mL glass test tubes and homogeneously distributed on the inner walls by rotation and tilting on a shaking device (2 h at 30 rpm). With a compound concentration of 900 ppm, an inner surface of 44.7 cm^2 and a homogeneous distribution, a dose of 5 μg/cm^2 is achieved.
After the solvent has evaporated, each test tube is filled with 5-10 adult brown dog ticks (Rhipicephalus sanguineus), closed with a perforated lid and incubated in a lying position at room temperature and relative humidity. After 48 hours efficacy is determined. The ticks are patted on the ground of the tubes and are incubated on a heating plate at 45-50° C. for at most 5 minutes. Immotile or uncoordinated moving ticks, which are not able to escape the heat by climbing upwards, are marked as dead or moribund.
An efficacy of 100% means all ticks are dead or moribund; 0% means no ticks are dead or moribund.

[11] = test system: adult engorged female ticks (Rhipicephalus microplus); assay: Rhipicephalus (Boophilus) microplus injection test; settings: 168 h, application rate 4 μg/tick, egg deposition after 7 days, read-out: activity (efficacy: infertile eggs)
Experimental: Rhipicephalus (Boophilus) microplus—Injection Test
Solvent: dimethyl sulfoxide
To produce a suitable preparation of active compound, 10 mg of active compound are dissolved in 0.5 mL solvent, and the concentrate is diluted with solvent to the desired concentration.
Five adult engorged female ticks (Rhipicephalus microplus) are injected with 1 μL compound solution into the abdomen. The ticks are transferred into replica plates and incubated in a climate chamber.
After 7 days egg deposition of fertile eggs is monitored. Eggs where fertility is not visible are stored in a climate chamber till hatching after about 42 days. An efficacy of 100% means all eggs are infertile; 0% means all eggs are fertile.

| Compound | pest or weed control at 1 µg/cm2, 100 g/ha [1] | pest or weed control at 5 µg/cm2, 500 g/ha [1] | pest or weed control at 5 µg/cm2 [2] | pest or weed control at 32 µg/disc, 100 g/ha [3] | mortality at 4 ppm [4] | mortality at 100 g/ha [5] | mortality at 20 mg/m2 [6] | mortality at 20 mg/m2 [7] | mortality at 100 g/ha [8] | mortality at 100 g/ha [9] | pest or weed control at 5 µg/cm2, 500 g/ha [10] | mortality at 4 mg/m2 ([7]; surface concentration 4 mg/m^2, exposure 30 minutes) | mortality at 500 g/ha [9] | mortality at 500 g/ha [8] | pest or weed control at 0.004 mg [11] |
| --- | --- | --- | --- | --- | --- | --- | --- | --- | --- | --- | --- | --- | --- | --- | --- |
| C[C@H](NC(=O)c1cc(C(F)(F)F)cc(C(F)(F)F)c1)c1ncnn1-c1ccc(C(=O)N2CCOC[C@@H]2C)cn1 [Example I-67] | 100% | 100% | 100% | 100% | 100% | 100% | 80 to 100% | 80 to 100% | – | – | – | – | – | – | – |
| C[C@H](NC(=O)c1cc(C(F)(F)F)cc(C(F)(F)F)c1)c1ncnn1-c1ccc(C(=O)N(C)C2COC2)cn1 [Example I-112] | 100% | 100% | 90% | – | 70% | 100% | 80 to 100% | 80 to 100% | 100% | 100% | – | – | – | – | – |
| Cc1nc([C@H](C)NC(=O)c2cc(C(F)(F)F)cc(C(F)(F)F)c2)n(-c2ccc(C(=O)N3CCOC[C@@H]3C)cn2)n1 [Example I-68] | 100% | 100% | 100% | 100% | – | 100% | 80 to 100% | – | – | – | – | – | – | – | – |
| Cc1nc([C@H](C)NC(=O)c2cc(C(F)(F)F)cc(C(F)(F)F)c2)n(-c2ccc(C(=O)N3CCO[C@H](C)C3)cn2)n1 [Example I-70] | 100% | 100% | 100% | 100% | 100% | 100% | 80 to 100% | 80 to 100% | 90% | 90% | 100% | 80 to 100% | – | – | – |
| Cc1nc([C@H](C)NC(=O)c2cc(C(F)(F)F)cc(C(F)(F)F)c2)n(-c2ccc(C(=O)N3CCOC[C@H]3C)cn2)n1 [Example I-72] | 100% | 100% | 100% | 100% | – | 100% | – | 80 to 100% | – | – | 100% | – | – | – | – |
| C[C@@H]1CN(C(=O)c2ccc(-n3nc(C4CC4)nc3[C@H](C)NC(=O)c3cc(C(F)(F)F)cc(C(F)(F)F)c3)nc2)C[C@H](C)O1 [Example I-89] | 100% | 100% | 100% | 100% | – | 100% | – | 80 to 100% | – | – | 100% | – | 100% | – | – |
| C[C@H](NC(=O)c1cc(C(F)(F)F)cc(C(F)(F)F)c1)c1ncnn1-c1ccc(C(=O)NC2CCOC2)cn1 (some centres unmarked) [Example I-61] | 90% | 90% | – | – | 100% | 100% | 80 to 100% | – | – | – | – | – | 100% | 90% | – |
| C[C@H](NC(=O)c1cc(C(F)(F)F)cc(C(F)(F)F)c1)c1ncnn1-c1ccc(C(=O)NC2CS(=O)(=O)C2)cn1 [Example I-63] | 90% | 90% | 100% | 100% | 100% | – | 80 to 100% | – | 90% | – | – | – | – | 90% | – |
| C[C@H](NC(=O)c1cc(C(F)(F)F)cc(C(F)(F)F)c1)c1ncnn1-c1ccc(C(=O)N2CC3(COC3)C2)cn1 [Example I-12] | 100% | 100% | 90% | – | 100% | 100% | 80 to 100% | – | – | – | 100% | – | – | – | 100% |
| CON(C)C(=O)c1ccc(-n2nc(C)nc2[C@H](C)NC(=O)c2cc(C(F)(F)F)cc(C(F)(F)F)c2)nc1 [Example I-49] | 100% | 100% | – | 100% | 100% | 100% | 80 to 100% | – | 90% | – | – | – | – | – | – |
| CON(C)C(=O)c1ccc(-n2ncnc2[C@H](C)NC(=O)c2cc(C(F)(F)F)cc(C(F)(F)F)c2)nc1 [Example I-48] | 100% | 100% | – | 100% | 100% | 100% | 80 to 100% | – | – | – | – | – | – | – | – |
